Holding throughout (assay): biochemical
For test [1], the target named is ACVR1B (Homo sapiens, UniProt P36896). On the set-up: KINOMEscan (DiscoverX) competition binding screen of 97 human kinases, percent of control at 10 uM. On the procedure: (§1) The KINOMEscan profiling of the inhibitors were performed as per directions by the manufacturer (DiscoverX) against a panel of human protein kinases.
Test [2] has as its target PIK3CG (Homo sapiens, UniProt P48736). On the set-up: KINOMEscan (DiscoverX) competition binding screen of 97 human kinases, percent of control at 10 uM. On the procedure: as §1
Test [3] has as its target T1, TYK2(JH1domain-catalytic) (Homo sapiens, UniProt P29597).
T1 construct: JH1domain-catalytic
On the set-up: KINOMEscan (DiscoverX) competition binding screen of 97 human kinases, percent of control at 10 uM. On the procedure: as §1

Test [4] addresses MET (Homo sapiens, UniProt P08581). On the set-up: KINOMEscan (DiscoverX) competition binding screen of 97 human kinases, percent of control at 10 uM. On the procedure: as §1
For test [5], the target named is BRAF(V600E) (Homo sapiens, UniProt P15056, V600E). On the set-up: KINOMEscan (DiscoverX) competition binding screen of 97 human kinases, percent of control at 10 uM. On the procedure:
as §1

Test [6] addresses PAK4 (Homo sapiens, UniProt O96013). On the set-up: KINOMEscan (DiscoverX) competition binding screen of 97 human kinases, percent of control at 10 uM. On the procedure:
as §1

The target of test [7] is T2, JAK3(JH1domain-catalytic) (Homo sapiens, UniProt P52333).
T2 construct: JH1domain-catalytic
On the set-up: KINOMEscan (DiscoverX) competition binding screen of 97 human kinases, percent of control at 10 uM. On the procedure:
as §1

Test [8] has as its target CDK3 (Homo sapiens, UniProt Q00526). On the set-up: KINOMEscan (DiscoverX) competition binding screen of 97 human kinases, percent of control at 10 uM. On the procedure:
as §1

Test [9] has as its target BRAF (Homo sapiens, UniProt P15056). On the set-up: KINOMEscan (DiscoverX) competition binding screen of 97 human kinases, percent of control at 10 uM. On the procedure:
as §1

In test [10] the target is AURKB (Homo sapiens, UniProt Q96GD4). On the set-up: KINOMEscan (DiscoverX) competition binding screen of 97 human kinases, percent of control at 10 uM. On the procedure: as §1
Test [11] addresses PLK3 (Homo sapiens, UniProt Q9H4B4). On the set-up: KINOMEscan (DiscoverX) competition binding screen of 97 human kinases, percent of control at 10 uM. On the procedure:
as §1

The target of test [12] is ALK (Homo sapiens, UniProt Q9UM73). On the set-up: KINOMEscan (DiscoverX) competition binding screen of 97 human kinases, percent of control at 10 uM. On the procedure: as §1
In test [13] the target is TGFBR1 (Homo sapiens, UniProt P36897). On the set-up: KINOMEscan (DiscoverX) competition binding screen of 97 human kinases, percent of control at 10 uM. On the procedure: as §1
Test [14] concerns the target PLK1 (Homo sapiens, UniProt P53350). On the set-up: KINOMEscan (DiscoverX) competition binding screen of 97 human kinases, percent of control at 10 uM. On the procedure: as §1
The target in test [15] is PDGFRA (Homo sapiens, UniProt P16234). On the set-up: KINOMEscan (DiscoverX) competition binding screen of 97 human kinases, percent of control at 10 uM. On the procedure:
as §1

Test [16] addresses ULK2 (Homo sapiens, UniProt Q8IYT8). On the set-up: KINOMEscan (DiscoverX) competition binding screen of 97 human kinases, percent of control at 10 uM. On the procedure:
as §1

Test [17] deals with T3, CDK11 (Homo sapiens, UniProt Q9BWU1).
T3 construct: gene CDK19
On the set-up: KINOMEscan (DiscoverX) competition binding screen of 97 human kinases, percent of control at 10 uM. On the procedure:
as §1

The target in test [18] is PRKCE (Homo sapiens, UniProt Q02156). On the set-up: KINOMEscan (DiscoverX) competition binding screen of 97 human kinases, percent of control at 10 uM. On the procedure:
as §1

Test [19] addresses T4, RSK2(Kin.Dom.1-N-terminal) (Homo sapiens, UniProt P51812).
T4 construct: gene RPS6KA3; Kin.Dom.1-N-terminal
On the set-up: KINOMEscan (DiscoverX) competition binding screen of 97 human kinases, percent of control at 10 uM. On the procedure: as §1

Test [20] deals with TSSK1B (Homo sapiens, UniProt Q9BXA7). On the set-up: KINOMEscan (DiscoverX) competition binding screen of 97 human kinases, percent of control at 10 uM. On the procedure: as §1
Test [21] addresses DYRK1B (Homo sapiens, UniProt Q9Y463). On the set-up: KINOMEscan (DiscoverX) competition binding screen of 97 human kinases, percent of control at 10 uM. To be noted: binding competition, % of control. On the procedure: as §1
Test [22] deals with VEGFR2 (Homo sapiens, UniProt P35968). On the set-up: gene KDR; KINOMEscan (DiscoverX) competition binding screen of 97 human kinases, percent of control at 10 uM. On the procedure:
as §1

For test [23], the target named is TIE2 (Homo sapiens, UniProt Q02763). On the set-up: gene TEK; KINOMEscan (DiscoverX) competition binding screen of 97 human kinases, percent of control at 10 uM. On the procedure:
as §1

Setting [24] is: read-out: R428 %Ctrl @ 10000nM, binding competition.
Where [25] appears, read: binding competition, % of control, read-out: RU-301 %Ctrl @ 10000nM.

The structures appear in SMILES notation. Like-named read-outs stand apart in the source and are kept apart here.

PLK1, sequence (P53350 whole entry): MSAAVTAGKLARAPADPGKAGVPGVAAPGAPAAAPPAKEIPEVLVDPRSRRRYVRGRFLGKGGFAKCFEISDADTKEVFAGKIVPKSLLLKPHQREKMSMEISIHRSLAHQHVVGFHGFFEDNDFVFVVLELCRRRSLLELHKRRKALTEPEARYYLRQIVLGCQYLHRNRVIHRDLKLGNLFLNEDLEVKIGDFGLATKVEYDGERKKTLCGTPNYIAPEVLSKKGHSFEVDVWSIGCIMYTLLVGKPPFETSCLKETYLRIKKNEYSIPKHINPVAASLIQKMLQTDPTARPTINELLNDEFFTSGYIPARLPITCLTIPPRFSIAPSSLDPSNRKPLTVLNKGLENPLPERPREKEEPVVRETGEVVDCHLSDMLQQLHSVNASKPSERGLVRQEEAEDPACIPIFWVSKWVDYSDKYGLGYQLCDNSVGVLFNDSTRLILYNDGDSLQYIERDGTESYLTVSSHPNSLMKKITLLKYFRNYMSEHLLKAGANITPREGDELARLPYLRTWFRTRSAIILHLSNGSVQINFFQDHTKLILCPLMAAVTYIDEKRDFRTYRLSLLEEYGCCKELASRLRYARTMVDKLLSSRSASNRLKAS
PRKCE, sequence (Q02156 whole entry): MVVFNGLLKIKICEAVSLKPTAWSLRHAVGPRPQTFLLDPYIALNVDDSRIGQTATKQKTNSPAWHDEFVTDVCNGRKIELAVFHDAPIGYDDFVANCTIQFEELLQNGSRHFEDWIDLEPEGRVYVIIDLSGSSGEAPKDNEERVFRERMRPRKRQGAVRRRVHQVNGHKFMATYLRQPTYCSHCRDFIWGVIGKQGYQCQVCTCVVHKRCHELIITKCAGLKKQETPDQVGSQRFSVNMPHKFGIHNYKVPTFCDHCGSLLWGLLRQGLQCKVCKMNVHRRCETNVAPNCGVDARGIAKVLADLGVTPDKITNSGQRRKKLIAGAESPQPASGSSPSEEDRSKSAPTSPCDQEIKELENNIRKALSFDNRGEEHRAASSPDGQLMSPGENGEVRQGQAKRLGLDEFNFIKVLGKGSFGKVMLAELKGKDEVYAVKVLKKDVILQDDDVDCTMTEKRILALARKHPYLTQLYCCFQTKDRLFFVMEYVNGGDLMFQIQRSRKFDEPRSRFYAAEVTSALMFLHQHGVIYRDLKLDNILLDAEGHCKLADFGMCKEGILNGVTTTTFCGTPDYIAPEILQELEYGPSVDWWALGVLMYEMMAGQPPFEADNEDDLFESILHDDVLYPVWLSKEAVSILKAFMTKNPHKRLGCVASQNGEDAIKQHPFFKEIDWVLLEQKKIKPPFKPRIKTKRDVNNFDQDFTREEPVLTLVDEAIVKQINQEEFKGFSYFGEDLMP
PLK3, sequence (Q9H4B4 whole entry): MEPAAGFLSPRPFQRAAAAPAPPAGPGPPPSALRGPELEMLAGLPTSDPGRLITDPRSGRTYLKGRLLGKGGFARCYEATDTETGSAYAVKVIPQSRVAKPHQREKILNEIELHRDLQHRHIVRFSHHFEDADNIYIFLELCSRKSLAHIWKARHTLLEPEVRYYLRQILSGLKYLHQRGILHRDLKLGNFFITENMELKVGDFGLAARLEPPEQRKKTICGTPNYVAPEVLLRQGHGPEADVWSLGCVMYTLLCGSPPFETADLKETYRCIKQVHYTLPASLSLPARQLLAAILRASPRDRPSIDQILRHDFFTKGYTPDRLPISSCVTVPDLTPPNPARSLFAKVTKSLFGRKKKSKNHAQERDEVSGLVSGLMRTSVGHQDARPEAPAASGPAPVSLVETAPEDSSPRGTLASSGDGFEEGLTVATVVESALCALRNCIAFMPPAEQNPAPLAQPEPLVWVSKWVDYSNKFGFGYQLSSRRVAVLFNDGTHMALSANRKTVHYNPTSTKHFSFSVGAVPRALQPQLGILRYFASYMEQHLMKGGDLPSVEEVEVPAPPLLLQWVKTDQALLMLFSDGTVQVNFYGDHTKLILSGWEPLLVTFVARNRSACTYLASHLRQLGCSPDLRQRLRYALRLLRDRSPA
ALK, sequence (Q9UM73 whole entry): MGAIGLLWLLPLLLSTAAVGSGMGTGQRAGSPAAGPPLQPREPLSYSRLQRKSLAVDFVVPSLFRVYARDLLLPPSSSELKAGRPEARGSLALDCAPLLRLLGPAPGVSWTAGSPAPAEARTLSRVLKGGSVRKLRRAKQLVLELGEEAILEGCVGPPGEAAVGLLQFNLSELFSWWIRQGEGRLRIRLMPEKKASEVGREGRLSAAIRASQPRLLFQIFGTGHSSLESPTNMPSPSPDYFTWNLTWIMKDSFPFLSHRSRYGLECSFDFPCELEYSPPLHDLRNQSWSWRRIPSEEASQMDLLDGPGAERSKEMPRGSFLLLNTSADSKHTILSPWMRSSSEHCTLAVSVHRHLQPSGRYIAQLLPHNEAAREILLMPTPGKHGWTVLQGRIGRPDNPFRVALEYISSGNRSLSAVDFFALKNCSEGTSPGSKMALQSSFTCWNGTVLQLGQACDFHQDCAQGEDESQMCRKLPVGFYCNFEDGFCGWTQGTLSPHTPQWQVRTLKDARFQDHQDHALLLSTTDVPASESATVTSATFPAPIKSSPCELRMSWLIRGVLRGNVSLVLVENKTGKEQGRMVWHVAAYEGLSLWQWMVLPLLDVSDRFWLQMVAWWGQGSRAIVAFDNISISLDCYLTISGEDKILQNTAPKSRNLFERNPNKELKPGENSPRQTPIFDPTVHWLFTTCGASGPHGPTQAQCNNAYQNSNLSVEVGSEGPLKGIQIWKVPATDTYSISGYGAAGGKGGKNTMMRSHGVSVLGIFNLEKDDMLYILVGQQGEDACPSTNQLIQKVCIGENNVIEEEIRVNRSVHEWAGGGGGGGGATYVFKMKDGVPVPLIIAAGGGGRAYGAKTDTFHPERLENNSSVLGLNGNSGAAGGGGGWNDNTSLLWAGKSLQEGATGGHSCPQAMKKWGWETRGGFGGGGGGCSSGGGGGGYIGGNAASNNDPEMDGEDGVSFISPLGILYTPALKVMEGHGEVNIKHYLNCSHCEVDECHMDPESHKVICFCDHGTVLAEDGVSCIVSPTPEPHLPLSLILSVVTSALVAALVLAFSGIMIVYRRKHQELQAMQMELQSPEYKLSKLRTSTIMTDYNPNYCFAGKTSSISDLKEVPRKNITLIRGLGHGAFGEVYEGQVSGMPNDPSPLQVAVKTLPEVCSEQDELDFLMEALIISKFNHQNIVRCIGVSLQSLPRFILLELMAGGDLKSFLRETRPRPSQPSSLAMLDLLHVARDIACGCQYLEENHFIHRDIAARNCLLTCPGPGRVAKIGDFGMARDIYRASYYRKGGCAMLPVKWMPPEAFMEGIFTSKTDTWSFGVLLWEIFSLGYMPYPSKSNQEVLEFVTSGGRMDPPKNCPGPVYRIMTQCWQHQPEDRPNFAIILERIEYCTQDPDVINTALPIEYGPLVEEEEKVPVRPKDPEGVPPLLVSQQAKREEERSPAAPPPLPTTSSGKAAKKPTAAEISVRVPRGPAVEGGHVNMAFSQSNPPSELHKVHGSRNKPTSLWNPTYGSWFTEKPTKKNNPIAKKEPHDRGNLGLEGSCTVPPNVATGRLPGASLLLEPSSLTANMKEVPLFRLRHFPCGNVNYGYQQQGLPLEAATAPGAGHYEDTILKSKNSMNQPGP
T1 sequence (P29597 whole entry): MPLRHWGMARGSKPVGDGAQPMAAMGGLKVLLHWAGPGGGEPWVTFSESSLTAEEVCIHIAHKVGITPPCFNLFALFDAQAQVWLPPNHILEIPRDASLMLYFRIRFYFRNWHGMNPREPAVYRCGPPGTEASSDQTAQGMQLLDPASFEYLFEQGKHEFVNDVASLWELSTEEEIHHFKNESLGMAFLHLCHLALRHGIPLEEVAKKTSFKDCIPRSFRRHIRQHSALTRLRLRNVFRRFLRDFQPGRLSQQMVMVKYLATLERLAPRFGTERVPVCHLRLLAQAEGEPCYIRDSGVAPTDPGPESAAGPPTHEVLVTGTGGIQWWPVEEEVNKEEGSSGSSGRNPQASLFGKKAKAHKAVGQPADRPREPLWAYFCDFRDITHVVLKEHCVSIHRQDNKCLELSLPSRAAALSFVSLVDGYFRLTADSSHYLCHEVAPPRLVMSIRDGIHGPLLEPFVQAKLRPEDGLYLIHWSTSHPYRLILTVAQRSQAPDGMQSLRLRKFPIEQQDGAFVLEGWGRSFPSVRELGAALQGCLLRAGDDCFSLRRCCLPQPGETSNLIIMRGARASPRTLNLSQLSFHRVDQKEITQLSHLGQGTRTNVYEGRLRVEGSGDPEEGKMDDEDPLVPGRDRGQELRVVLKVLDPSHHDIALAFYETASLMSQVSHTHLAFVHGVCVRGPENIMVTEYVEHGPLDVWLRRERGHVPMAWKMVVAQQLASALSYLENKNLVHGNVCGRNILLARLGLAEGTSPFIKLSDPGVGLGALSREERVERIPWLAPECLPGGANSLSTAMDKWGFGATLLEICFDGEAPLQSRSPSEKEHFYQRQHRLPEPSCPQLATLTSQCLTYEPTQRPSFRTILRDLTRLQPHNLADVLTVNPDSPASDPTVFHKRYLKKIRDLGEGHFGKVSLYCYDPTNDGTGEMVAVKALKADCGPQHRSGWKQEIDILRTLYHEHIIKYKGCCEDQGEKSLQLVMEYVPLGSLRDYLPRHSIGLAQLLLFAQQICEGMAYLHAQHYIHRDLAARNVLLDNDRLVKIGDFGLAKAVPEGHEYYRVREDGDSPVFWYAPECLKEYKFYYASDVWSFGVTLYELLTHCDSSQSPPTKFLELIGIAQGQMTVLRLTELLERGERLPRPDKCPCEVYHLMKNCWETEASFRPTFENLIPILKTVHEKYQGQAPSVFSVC
CDK3, sequence (Q00526 whole entry): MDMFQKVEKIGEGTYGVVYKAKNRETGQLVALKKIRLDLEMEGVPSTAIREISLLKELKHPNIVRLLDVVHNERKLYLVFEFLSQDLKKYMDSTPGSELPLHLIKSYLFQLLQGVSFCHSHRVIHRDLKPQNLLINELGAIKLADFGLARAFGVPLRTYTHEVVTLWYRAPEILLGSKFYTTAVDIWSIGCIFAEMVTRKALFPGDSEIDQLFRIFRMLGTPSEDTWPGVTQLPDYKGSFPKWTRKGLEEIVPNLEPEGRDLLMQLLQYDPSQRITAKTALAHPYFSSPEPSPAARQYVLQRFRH

As to `Nc1nc(Nc2ccc3c(c2)CC[C@@H](N2CCCC2)CC3)nn1-c1cc2c(nn1)-c1ccccc1CCC2` [R428], the percent of control binding at 10 µM is 26% in [1] (setting [24]); 21% in [2] (setting [24]); 17% in test [3] (setting [24]); 9.4% in test [4] (setting [24]); 70% in [5] (setting [24]); 85% in test [6] (setting [24]). Besides, the percent of control binding at 10 µM is 0.2% in test [7] (setting [24]); 72% in [8] (setting [24]); 64% in test [9] (setting [24]); 0.45% in test [10] (setting [24]); 29% in test [11] (setting [24]); 60% in [12] (setting [24]). Moreover, the percent of control binding at 10 µM was 75% in test [13] (setting [24]); 2.9% in test [14] (setting [24]); 1.4% in [15] (setting [24]); 1.6% in test [16] (setting [24]); 98% in test [17] (setting [24]); 24% in [18] (setting [24]). For the same compound, the percent of control binding at 10 µM amounted to 2.1% in [19] (setting [24]), 22% in test [20] (setting [24]), 1% in test [22] (setting [24]) and 0.45% in test [23] (setting [24]). Besides, the remaining binding at 10 µM in [21] (read-out: R428 %Ctrl @ 10000nM) is 46%.
On to `Cc1cc(CSc2ccccc2C(=O)NCCNc2ccc(C(F)(F)F)cc2[N+](=O)[O-])on1` [RU-301], for which the remaining binding at 10 µM turned out to be 96% in [1] (setting [25]); 100% in test [2] (setting [25]); 55% in test [3] (setting [25]); 88% in test [4] (setting [25]); 94% in test [5] (setting [25]); 93% in test [6] (setting [25]). Also, the remaining binding at 10 µM in test [7] (setting [25]) is 95%; in test [8] (setting [25]), 93%; in [9] (setting [25]) it was 99%; in [10] (setting [25]) it was 73%; in test [11] (setting [25]) it was 91%; in test [12] (setting [25]), 100%. Further, the remaining binding at 10 µM in test [13] (setting [25]) amounted to 100%; in test [14] (setting [25]) it was 95%; in test [15] (setting [25]), 99%; in test [16] (setting [25]) it was 97%; in [17] (setting [25]) it was 94%; in test [18] (setting [25]), 91%. The remaining binding at 10 µM in test [19] (setting [25]) is 74%; in [20] (setting [25]) it was 78%; in test [21] (read-out: RU-301 %Ctrl @ 10000nM), 100%; in test [22] (setting [25]), 99%; in [23] (setting [25]) it was 100%.

These data come from publication PMC5341070, “Small molecule inhibitors block Gas6-inducible TAM activation and tumorigenicity” (Scientific Reports, 2017).
